Results reported in patent US10118902B2 (Sanford Burnham Prebys Medical Discovery Institute, priority 2014, dated 2018).

target: neurotensin receptor 1 (NTR1) (Homo sapiens (Human), UniProt P30989); assay: NTR1 dose response, high-content imaging beta-arrestin-GFP assay in NTR1-U2OS cells; assay type: cell-based; conditions: read-out: EC50
Sequence (P30989 whole entry, species assumed): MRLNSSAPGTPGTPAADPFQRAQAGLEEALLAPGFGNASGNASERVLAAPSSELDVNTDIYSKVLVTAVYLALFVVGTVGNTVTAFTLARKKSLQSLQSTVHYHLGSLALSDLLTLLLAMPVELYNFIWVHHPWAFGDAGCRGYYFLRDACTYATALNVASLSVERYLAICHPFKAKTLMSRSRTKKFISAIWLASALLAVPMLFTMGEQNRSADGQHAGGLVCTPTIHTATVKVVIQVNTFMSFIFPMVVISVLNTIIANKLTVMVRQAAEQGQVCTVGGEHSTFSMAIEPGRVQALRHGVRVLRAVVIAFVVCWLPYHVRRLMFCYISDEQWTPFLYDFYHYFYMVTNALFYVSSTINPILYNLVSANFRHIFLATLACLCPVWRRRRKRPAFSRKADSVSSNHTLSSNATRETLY

SMILES | EC50 [nM]
CN(CCN1CCCC1)c1ccc2nc(C3CC3)nc(N3CCC(c4ccccc4N4CCC4)CC3)c2c1 [Example 9, {4-[4-(2-azetidin-1-yl-phenyl)-piperidin-1-yl]-2-cyclopropyl-quinazolin-6-yl}-methyl-(2-pyrrolidin-1-yl-ethyl)-amine] | > 10000
COc1ccccc1C1CCN(c2nc(C3CC3)nc(C)c2CC(=O)Nc2ccccc2)CC1 [Example 160] | > 10000
COc1ccccc1C1CCN(c2nc(C3CC3)nc3ccc(N4CC[C@H](O)C4)cc23)CC1 [Example 82, (S)-1-(2-cyclopropyl-4-(4-(2-methoxyphenyl)piperidin-1-yl)quinazolin-6-yl)pyrrolidin-3-ol] | 500 to 2000
COc1nccnc1C1CCN(c2nc(C3(F)CC3)nc3c(F)cc(N(C)CCO)cc23)CC1 [Example 213, 2-({8-Fluoro-2-(1-fluoro-cyclopropyl)-4-[4-(3-methoxy-pyrazin-2-yl)-piperidin-1-yl]-quinazolin-6-yl}-methyl-amino)-ethanol] | 500 to 2000
COc1ccccc1N(C)C1CCCC1Nc1nc(C2CC2)nc2ccc(N(C)CCO)cc12 (stereo not drawn) [Example 151, 2-[(2-cyclopropyl-4-{2-[(2-methoxy-phenyl)-methyl-amino]-cyclopentylamino}-quinazolin-6-yl)-methyl-amino]-ethanol] | > 10000
CCCN(C)c1ccc2nc(C3CC3)nc(NC3CCN(c4ccccc4OC)C3)c2c1 (stereo not drawn) [Example 155, 2-cyclopropyl-N4-(1-(2-methoxyphenyl)pyrrolidin-3-yl)-N6-methyl-N6-propylquinazoline-4,6-diamine] | > 10000
COc1ccc(F)cc1C1CCN(c2nc(C3CC3)nc3cc(C)c(N(C)CCO)cc23)CC1 [Example 115, 2-({2-cyclopropyl-4-[4-(5-fluoro-2-methoxy-phenyl)-piperidin-1-yl]-7-methyl-quinazolin-6-yl}-methyl-amino)-ethanol] | 2000 to 10000
CCCN(C)c1ccc2nc(C3CC3)nc(N3CCN(C4CCCC4O)CC3)c2c1 (stereo not drawn) [Example 141, 2-{4-[2-cyclopropyl-6-(methyl-propyl-amino)-quinazolin-4-yl]-piperazin-1-yl}-cyclopentanol] | > 10000
COc1ccccc1C1CCN(c2nc(C3CC3)nc3ccc(N4CC[C@H](OC)C4)cc23)CC1 [Example 84, (S)-2-cyclopropyl-4-(4-(2-methoxyphenyl)piperidin-1-yl)-6-(3-methoxypyrrolidin-1-yl)quinazoline] | 500 to 2000
CN(CCO[Si](C)(C)C(C)(C)C)c1ccc2nc(C3(F)CC3)nc(N3CCC(c4ccccc4O)CC3)c2c1 [Example 224, 2-{1-[6-{[2-(tert-Butyl-dimethyl-silanyloxy)-ethyl]-methyl-amino}-2-(1-fluoro-cyclopropyl)-quinazolin-4-yl]-piperidin-4-yl}-phenol] | 2000 to 10000
COc1ccccc1C1CCN(c2nc(C3CC3)nc3cnc(N(C)CCN4CCOCC4)cc23)CC1 [Example 134, 2-cyclopropyl-4-(4-(2-methoxyphenyl)piperidin-1-yl)-N-methyl-N-(2-morpholinoethyl)pyrido[3,4-d]pyrimidin-6-amine] | 500 to 2000
COc1ccccc1C1CCN(c2nc(C3CC3)nc3ccc(N4CCC(OC)CC4)cc23)CC1 [Example 77] | 2000 to 10000
CN(CCN1CCOCC1)c1ccc2nc(C3CC3)nc(N3CCN(C4CCCC4O)CC3)c2c1 (stereo not drawn) [Example 142, 2-(4-{2-cyclopropyl-6-[methyl-(2-morpholin-4-yl-ethyl)-amino]-quinazolin-4-yl}-piperazin-1-yl)-cyclopentanol] | > 10000
COc1ccccc1N1CC2(C1)CN(c1nc(C3CC3)nc3ccc(N(C)CCN4CCOCC4)cc13)C2 [Example 101, {2-cyclopropyl-4-[6-(2-methoxy-phenyl)-2,6-diaza-spiro [3.3]hept-2-yl]-quinazolin-6-yl}-methyl-(2-morpholin-4-yl-ethyl)-amine] | > 10000
COc1ccccc1C1CCN(c2nc(-c3ccccc3)nc3ccc(N(C)C)cc23)CC1 [Example 143] | > 10000

Other lines, results leading:

EC50 [nM] | SMILES
< 500 | COc1ccccc1C1CCN(c2nc(C3(F)CC3)nc3cc(F)c(N(C)CCO)cc23)CC1 [Example 171]
500 to 2000 | COc1ccccc1C1CCN(c2nc(C3(F)CC3)nc3cnc(N4CC[C@H](O)C4)cc23)CC1 [Example 196, 1-{2-(1-Fluoro-cyclopropyl)-4-[4-(2-methoxy-phenyl)-piperidin-1-yl]-pyrido[3,4-d]pyrimidin-6-yl}-pyrrolidin-3-ol]
> 10000 | COc1ccccc1N[C@@H]1CCN(c2nc(C3CC3)nc3ccc(N(C)CCO)cc23)C1 (stereo in doubt) [Example 153, 2-({2-cyclopropyl-4-[3-(2-methoxy-phenylamino)-pyrrolidin-1-yl]-quinazolin-6-yl}-methyl-amino)-ethanol]
500 to 2000 | CN(CCO)c1ccc2nc(C3CC3)nc(N3CCC(c4ccccc4N4CCC4)CC3)c2c1 [Example 6, 2-({4-[4-(2-azetidin-1-yl-phenyl)-piperidin-1-yl]-2-cyclopropyl-quinazolin-6-yl}-methyl-amino)-ethanol]
< 500 | COc1ccccc1C1CCN(c2nc(C3(F)CCC3)nc3ccc(N(C)CCN4CCOCC4)cc23)CC1 [Example 60, {2-(1-fluoro-cyclobutyl)-4-[4-(2-methoxy-phenyl)-piperidin-1-yl]-quinazolin-6-yl}-methyl-(2-morpholin-4-yl-ethyl)-amine]
2000 to 10000 | COc1ccccc1C1CCN(c2nc(C3(F)CCC3)nc3cnc(N4CC[C@H](O)C4)cc23)CC1 [Example 200, 1-{2-(1-Fluoro-cyclobutyl)-4-[4-(2-methoxy-phenyl)-piperidin-1-yl]-pyrido[3,4-d]pyrimidin-6-yl}-pyrrolidin-3-ol]
2000 to 10000 | CN(C)c1ccccc1C1CCN(c2nc(C3(C(F)(F)F)CCC3)nc3ccc(N(C)CCO)cc23)CC1 [Example 65, 2-{[4-[4-(2-Dimethylamino-phenyl)-piperidin-1-yl]-2-(1-trifluoromethyl-cyclobutyl)-quinazolin-6-yl]-methyl-amino}-ethanol]
500 to 2000 | COc1ccccc1C1CCN(c2nc(C3CC3)nc3ccc(N(C)CCO)c(C)c23)CC1 [Example 126, 2-({2-cyclopropyl-4-[4-(2-methoxy-phenyl)-piperidin-1-yl]-5-methyl-quinazolin-6-yl}-methyl-amino)-ethanol]
> 10000 | CCCN(C)c1ccc2nc(NC3CCC3)nc(N3CCC(c4ccccc4OC)CC3)c2c1 [Example 97, N2-Cyclobutyl-4-[4-(2-methoxy-phenyl)-piperidin-1-yl]-N6-methyl-N6-propyl-quinazoline-2,6-diamine]
500 to 2000 | COc1ccccc1C1CCN(c2nc(C3CCC3)nc3ccc(N(C)CCO)cc23)CC1 [Example 43, 2-({2-cyclobutyl-4-[4-(2-methoxy-phenyl)-piperidin-1-yl]-quinazolin-6-yl}-methyl-amino)-ethanol]
> 10000 | COc1ccccc1C1CCN(c2nc(C3CC3)nc3cccc(N(C)CCO)c23)CC1 [Example 168, 2-({2-Cyclopropyl-4-[4-(2-methoxy-phenyl)-piperidin-1-yl]-quinazolin-5-yl}-methyl-amino)-ethanol]
2000 to 10000 | CN(C)c1ccccc1C1CCN(c2nc(C3(F)CCCC3)nc3ccc(N(C)CCO)cc23)CC1 [Example 75, 2-{[4-[4-(2-dimethylamino-phenyl)-piperidin-1-yl]-2-(1-fluoro-cyclopentyl)-quinazolin-6-yl]-methyl-amino}-ethanol]
> 10000 | COc1cnccc1C1CCN(c2nc(C3(F)CC3)nc3ccc(N(C)CCO)cc23)CC1 [Example 212, 2-{[2-(1-Fluoro-cyclopropyl)-4-(3′-methoxy-3,4,5,6-tetrahydro-2H-[4,4′]bipyridinyl-1-yl)-quinazolin-6-yl]-methyl-amino}-ethanol]
> 10000 | CN(C)c1ccccc1C1CCN(c2nc(C3(C(F)(F)F)CCC3)nc3ccc(N(C)CCN4CCOCC4)cc23)CC1 [Example 66, [4-[4-(2-dimethylamino-phenyl)-piperidin-1-yl]-2-(1-trifluoromethyl-cyclobutyl)-quinazolin-6-yl]-methyl-(2-morpholin-4-yl-ethyl)-amine]
2000 to 10000 | COc1ccccc1C1CCN(c2nc(C3(F)CCCC3)nc3ccc(N(C)CCN4CCOCC4)cc23)CC1 [Example 71, {2-(1fluoro-cyclopentyl)-4-[4-(2-methoxy-phenyl)-piperidin-1-yl]-quinazolin-6-yl}-methyl-(2-morpholin-4-yl-ethyl)-amine]
> 10000 | COc1ccccc1C1CCN(c2nc(C3(C)CC3)nc3ccc(N(C)CCN(C)C)cc23)CC1 [Example 23, N-[4-[4-(2-methoxy-phenyl)-piperidin-1-yl]-2-(1-methyl-cyclopropyl)-quinazolin-6-yl]-N,N′,N′-trimethyl-ethane-1,2-diamine]
> 10000 | CCCN(C)c1ccc2nc(-c3ccccc3)nc(N3CCC(c4ccccc4OC)CC3)c2c1 [Example 146, {4-[4-(2-methoxy-phenyl)-piperidin-1-yl]-2-phenyl-quinazolin-6-yl}-methyl-propyl-amine]
2000 to 10000 | CN(C)c1ccccc1C1CCN(c2nc(C3(C)CC3)nc3ccc(N(C)CCO)cc23)CC1 [Example 25, 2-{[4-[4-(2-dimethylamino-phenyl)-piperidin-1-yl]-2-(1-methyl-cyclopropyl)-quinazolin-6-yl]-methyl-amino}-ethanol]
> 10000 | CN(C)c1ccccc1C1CCN(c2nc(C3(C)CC3)nc3ccc(N(C)CCN4CCCC4)cc23)CC1 [Example 29, [4-[4-(2-dimethylamino-phenyl)-piperidin-1-yl]-2-(1-methyl-cyclopropyl)-quinazolin-6-yl]-methyl-(2-pyrrolidin-1-yl-ethyl)-amine]
500 to 2000 | COc1ccccc1C1CCN(c2nc(C3(C(F)(F)F)CCC3)nc3ccc(N(C)CCO)cc23)CC1 [Example 63, 2-{[4-[4-(2-methoxy-phenyl)-piperidin-1-yl]-2-(1-trifluoromethyl-cyclobutyl)-quinazolin-6-yl]-methyl-amino}-ethanol]
500 to 2000 | COc1ccccc1C1CCN(c2nc(C3(F)CC3)nc3ccc(N(C)CCN4CCOCC4)cc23)CC1 [Example 17, {2-(1-fluoro-cyclopropyl)-4-[4-(2-methoxy-phenyl)-piperidin-1-yl]-quinazolin-6-yl}-methyl-(2-morpholin-4-yl-ethyl)-amine]
